{"source": "patent US9873883B2", "about": "“Glyphosate resistant plants and associated methods” (Dow AgroSciences LLC, priority 2012, dated 2018)", "key": {"T0 corn": {"test_system": "T0 corn", "test": "Postemergence herbicide tolerance in dgt-14 transformed T0 corn", "format": "in vivo, Zea mays", "details": "example written in present tense", "protocol": "T0 events are allowed to acclimate in the greenhouse and are grown until two to four new, normal looking leaves emerge from the whorl (i.e., plants that transition from tissue culture to greenhouse growing conditions). Plants are grown at 27° C. under 16 hour light:8 hour dark conditions in the greenhouse. The plants are then treated with commercial formulations of Durango DMA™ (containing the herbicide glyphosate) with the addition of 2% w/v ammonium-sulfate. Herbicide applications are made with a track sprayer at a spray volume of 187 L/ha, 50-cm spray height. T0 plants are sprayed with a range of glyphosate from 280-4480 g ae/ha glyphosate, which is capable of significant injury to untransformed corn lines. A lethal dose is defined as the rate that causes >95% injury to the B104 inbred.\nSelected T0 plants are selfed or backcrossed for further characterization in the next generation. Additional experiments include a 100 plant progeny test which is conducted on chosen dgt-14 lines containing the T1 plants. All plants are sprayed with 140-1120 g ae/ha glufosinate or 105-1680 g ae/ha glyphosate as previously described. […] At fourteen DAT, resistant and sensitive plants are counted to determine the percentage of lines that segregated as a single locus, dominant Mendelian trait (3R:1S) as determined by Chi square analysis. […]"}, "[1]": {"test_system": "Non-transformed control Arabidopsis (cv. Columbia)", "test": "Postemergence glyphosate tolerance, visual injury", "format": "in vivo, Arabidopsis thaliana", "details": "840 g ae/ha, 2 weeks after application"}}, "data": [{"smiles": "O=C(O)CNCP(=O)(O)O", "note": "[glyphosate, N-(phosphonomethyl)glycine]", "values": [{"measurement": "glyphosate concentration controlling non-transformed plants", "setting": "T0 corn", "value": "≥ 280", "unit": "g ae/ha"}, {"measurement": "Visual % injury (Ave)", "setting": "[1]; T2 study", "value": 100.0, "unit": "%"}, {"measurement": "Visual % injury (Ave)", "setting": "[1]; T3 study", "value": 100.0, "unit": "%"}]}]}
